Measured values published in PMC7031696 (Cell chemical biology, 2019).
Read-outs that look alike come from different tables or passages of the source.

How the values were obtained:
[1] = system: 3D7-MR4 trophozoite parasite-infected RBCs; test: Metabolomic profiling (hydrophilic metabolite changes, UHPLC-MS); type: cell-based, Plasmodium falciparum
[2] = system: asynchronous 3D7-A10 parasite cultures; test: Standard 72-h exposure asexual blood stage susceptibility assay (IC50^72h); type: cell-based, Plasmodium falciparum; conditions: Plasmodium falciparum, 3D7, 72 h, read-out: Overall (72hr assay) Mean IC50 (IC50^72h)
[3] = system: Plasmodium falciparum 3D7-A10 parasites; test: Stage specificity assay (8-h exposure of synchronized stages, IC50^8h); type: cell-based; conditions: for IC50: Plasmodium falciparum; for Ratio lowest IC50 8hr/IC50 72hr: 3D7-A10
[4] = 3D7, 8 h, read-out: IC50^8h values at all tested stages, 8-h exposures, all asexual blood stages
[5] = 3D7, read-out: Early trophozoites Mean IC50 (IC50^8h), 8-h exposure 16–24 hr, 3D7-A10, survival at 60 h
[6] = 3D7, read-out: Late trophozoites Mean IC50 (IC50^8h), 8-h exposure 24–32 hr, 3D7-A10, survival at 60 h
[7] = 3D7, read-out: Schizonts Mean IC50 (IC50^8h), 8-h exposure 32–40 hr, 3D7-A10, survival at 60 h
[8] = 3D7, read-out: Early rings IC50 (IC50^8h), 8-h exposure 0–8 hr, bound given in μM
[9] = 3D7, read-out: Late rings IC50 (IC50^8h), 8-h exposure 8–16 hr, bound given in μM

O=C(Nc1ccc(N2CCNCC2)cc1)c1ccn2ncc(-c3cccc(Cl)c3)c2n1.O=C(O)C(F)(F)F [MMV022478]
peptide levels (hemoglobin catabolism signature) ([1]; 10 × IC50^72h, 2.5 hr, trophozoites): decreased peptide levels | Log2(fold changes) 3-phosphoglycerate ([1]; metabolite 3-phosphoglycerate, log2 fold change): -0.2221 | Log2(fold changes) 4-Pyridoxic acid ([1]; metabolite 4-Pyridoxic acid, log2 fold change): 0.0000 | Log2(fold changes) 4-aminobutyrate ([1]; metabolite 4-aminobutyrate, log2 fold change): -1.1535 | Log2(fold changes) 4-phosphopantetheine ([1]; metabolite 4-phosphopantetheine, log2 fold change): 0.0000 | Log2(fold changes) 4-phosphopantothenate ([1]; metabolite 4-phosphopantothenate, log2 fold change): -2.5840 | Log2(fold changes) 5-aminopentanoic acid ([1]; metabolite 5-aminopentanoic acid, log2 fold change): 0.0000 | Log2(fold changes) 5-methyl-THF ([1]; metabolite 5-methyl-THF, log2 fold change): 0.0000 | Log2(fold changes) 5-phosphoribosyl-1-pyrophosphate ([1]; metabolite 5-phosphoribosyl-1-pyrophosphate, log2 fold change): -3.8277 | Log2(fold changes) 6-phospho-D-gluconate ([1]; metabolite 6-phospho-D-gluconate, log2 fold change): -1.2363 | Log2(fold change) HVDD ([1]; metabolite HVDD): -6.0354 | Log2(fold change) Hydroxyisocaproic acid ([1]; metabolite Hydroxyisocaproic acid): 0.0000 | Log2(fold change) IDP ([1]; metabolite IDP): 0.0000 | Log2(fold change) IMP ([1]; metabolite IMP): -1.9723 | Log2(fold change) Inositol ([1]; metabolite Inositol): 0.0000 | Log2(fold change) Isopentyl-PP ([1]; metabolite Isopentyl-PP): 0.0000 | Log2(fold change) L-arginino-succinate ([1]; metabolite L-arginino-succinate): 0.0000 | Log2(fold change) LD ([1]; metabolite LD): 0.0000 | Log2(fold change) Myristoyl/tetradecanoyl-CoA ([1]; metabolite Myristoyl/tetradecanoyl-CoA): 0.0000 | Log2(fold change) N-Acetyl-L-alanine ([1]; metabolite N-Acetyl-L-alanine): -4.1046 | Log2(fold change) N-acetyl-L-ornithine ([1]; metabolite N-acetyl-L-ornithine): -4.9077 | Log2(fold change) N-acetyl-glucosamine-1/6-phosphate ([1]; metabolite N-acetyl-glucosamine-1/6-phosphate): -2.7078 | Log2(fold change) N-acetyl-glutamate ([1]; metabolite N-acetyl-glutamate): -2.2943 | Log2(fold change) N-acetyl-glutamine ([1]; metabolite N-acetyl-glutamine): 0.0000 | Log2(fold change) N-carbamoyl-L-aspartate ([1]; metabolite N-carbamoyl-L-aspartate): -4.4049 | Log2(fold change) NAD+ ([1]; metabolite NAD+): 0.0000 | Log2(fold change) NADH ([1]; metabolite NADH): 0.4682 | Log2(fold change) NADP+ ([1]; metabolite NADP+): -1.0797 | Log2(fold change) NADPH ([1]; metabolite NADPH): -1.0955 | Log2(fold change) O-acetyl-L-serine ([1]; metabolite O-acetyl-L-serine): 0.0000 | Log2(fold change) Octoluse 8/1P ([1]; metabolite Octoluse 8/1P): 0.0000 | Log2(fold change) Octoluse Bisphosphate ([1]; metabolite Octoluse Bisphosphate): -0.1243 | Log2(fold change) PD ([1]; metabolite PD): -4.6260 | Log2(fold change) PE ([1]; metabolite PE): -5.1379 | Log2(fold change) PEE ([1]; metabolite PEE): -4.6436 | Log2(fold change) PEEK ([1]; metabolite PEEK): 0.0000 | Log2(fold change) PVNF ([1]; metabolite PVNF): -7.1540 | Log2(fold change) Pyroglutamic acid ([1]; metabolite Pyroglutamic acid): 0.0000 | Log2(fold change) Pyrophosphate ([1]; metabolite Pyrophosphate): 0.0000 | Log2(fold change) Ribose-5-phosphate ([1]; metabolite Ribose-5-phosphate): -2.7334 | Log2(fold change) S-adenosyl-L-homocysteine ([1]; metabolite S-adenosyl-L-homocysteine): -2.8781 | Log2(fold change) S-adenosyl-L-methioninamine ([1]; metabolite S-adenosyl-L-methioninamine): 0.0000 | Log2(fold change) S-adenosyl-L-methionine ([1]; metabolite S-adenosyl-L-methionine): 0.0000 | Log2(fold change) S-methyl-5'-thioadenosine ([1]; metabolite S-methyl-5'-thioadenosine): 0.0000 | Log2(fold change) SD ([1]; metabolite SD): -2.2622 | Log2(fold change) SDL ([1]; metabolite SDL): 0.0000 | Log2(fold change) SID ([1]; metabolite SID): -5.7557 | Log2(fold change) Sedoheptulose bisphosphate ([1]; metabolite Sedoheptulose bisphosphate): -0.2613 | Log2(fold change) Thiamine pyrophosphate ([1]; metabolite Thiamine pyrophosphate): 0.0000 | Log2(fold changes) UDP-D-glucose ([1]; metabolite UDP-D-glucose, log2 fold change): -0.2797 | Log2(fold changes) UDP-D-glucuronate ([1]; metabolite UDP-D-glucuronate, log2 fold change): -0.6750 | Log2(fold changes) UDP-N-acetyl-glucosamine ([1]; metabolite UDP-N-acetyl-glucosamine, log2 fold change): -0.7739 | Log2(fold changes) UDP ([1]; metabolite UDP, log2 fold change): -2.1596 | Log2(fold changes) UMP ([1]; metabolite UMP, log2 fold change): -1.4504 | Log2(fold changes) UTP ([1]; metabolite UTP, log2 fold change): -1.2572 | Log2(fold change) hydroxyphenylpyruvate ([1]; metabolite hydroxyphenylpyruvate): 0.0000 | Log2(fold change) hydroxyproline/Aminolevulinate ([1]; metabolite hydroxyproline/Aminolevulinate): -0.1426 | Log2(fold change) hypoxanthine ([1]; metabolite hypoxanthine): 0.3419 | Log2(fold change) indole ([1]; metabolite indole): 0.0000 | Log2(fold change) inosine ([1]; metabolite inosine): -0.5164 | Log2(fold change) isoleucine ([1]; metabolite isoleucine): 0.2629 | Log2(fold change) lactate ([1]; metabolite lactate): -0.9550 | Log2(fold change) leucine ([1]; metabolite leucine): 0.0229 | Log2(fold change) lysine ([1]; metabolite lysine): 0.0000 | Log2(fold change) malate ([1]; metabolite malate): -1.9880 | Log2(fold change) maleic acid ([1]; metabolite maleic acid): -2.0576 | Log2(fold change) methionine ([1]; metabolite methionine): 0.4668 | Log2(fold change) myo-inositol ([1]; metabolite myo-inositol): 0.0000 | Log2(fold change) nicotinamide mononucleotide ([1]; metabolite nicotinamide mononucleotide): 0.0000 | Log2(fold change) nicotinate ([1]; metabolite nicotinate): -0.5789 | Log2(fold change) ornithine ([1]; metabolite ornithine): 0.0000 | Log2(fold change) orotate ([1]; metabolite orotate): -1.4233 | Log2(fold change) orotidine-5'-phosphate ([1]; metabolite orotidine-5'-phosphate): -3.1182 | Log2(fold change) oxaloacetate ([1]; metabolite oxaloacetate): 0.0000 | Log2(fold change) p-aminobenzoate ([1]; metabolite p-aminobenzoate): 0.0000 | Log2(fold change) p-hydroxybenzoate ([1]; metabolite p-hydroxybenzoate): 0.0000 | Log2(fold change) pantothenate ([1]; metabolite pantothenate): -0.7783 | Log2(fold change) phenylalanine ([1]; metabolite phenylalanine): -0.1127 | Log2(fold change) phenylpyruvate ([1]; metabolite phenylpyruvate): 0.0000 | Log2(fold change) phosphoenolpyruvate ([1]; metabolite phosphoenolpyruvate): 0.1262 | Log2(fold change) prephenate ([1]; metabolite prephenate): 0.0000 | Log2(fold change) proline ([1]; metabolite proline): -0.3073 | Log2(fold change) pyridoxine ([1]; metabolite pyridoxine): 0.2157 | Log2(fold change) pyruvate ([1]; metabolite pyruvate): -1.6686 | Log2(fold change) riboflavin ([1]; metabolite riboflavin): 0.0000 | Log2(fold change) ribose ([1]; metabolite ribose): 0.4922 | Log2(fold change) ribose-phosphate ([1]; metabolite ribose-phosphate): -2.5305 | Log2(fold change) ribulose-5-phosphate ([1]; metabolite ribulose-5-phosphate): -2.3648 | Log2(fold change) serine ([1]; metabolite serine): -0.3911 | Log2(fold change) sn-glycerol-3-phosphate ([1]; metabolite sn-glycerol-3-phosphate): -0.4279 | Log2(fold change) succinate/Methylmalonic acid ([1]; metabolite succinate/Methylmalonic acid): -3.0813 | Log2(fold change) succinyl-CoA/methylmalonyl-CoA ([1]; metabolite succinyl-CoA/methylmalonyl-CoA): -1.6128 | Log2(fold change) taurine ([1]; metabolite taurine): 0.0000 | Log2(fold change) thiamine ([1]; metabolite thiamine): 0.0000 | Log2(fold change) threonine/homoserine ([1]; metabolite threonine/homoserine): -0.6870 | Log2(fold change) thymidine ([1]; metabolite thymidine): 0.0000 | Log2(fold changes) thymine ([1]; metabolite thymine, log2 fold change): 0.0000 | Log2(fold changes) trehalose-6-Phosphate ([1]; metabolite trehalose-6-Phosphate, log2 fold change): 0.0000 | Log2(fold changes) tryptophan ([1]; metabolite tryptophan, log2 fold change): 0.1771 | Log2(fold changes) tyrosine ([1]; metabolite tyrosine, log2 fold change): -0.0043 | Log2(fold changes) uridine ([1]; metabolite uridine, log2 fold change): 0.0000 | IC50 [2]: 11.1 nM | IC50 [3, 4]: > 1 µM | IC50 ([3]; 3D7, read-out: Early rings Mean IC50 (IC50^8h), 8-h exposure 0–8 hr, 3D7-A10, survival at 60 h): 7.63 µM | IC50 [3, 5]: 2.13 µM | IC50 ([3]; 3D7, read-out: Late rings Mean IC50 (IC50^8h), 8-h exposure 8–16 hr, 3D7-A10, survival at 60 h): 4.87 µM | IC50 [3, 6]: 2.53 µM | IC50 [3, 7]: 3.37 µM

O=CN(O)CCCP(=O)(O)O [Fosmidomycin, reference compound]
IC50 [2]: 405 nM | Ratio lowest IC50 8hr/IC50 72hr [3]: 4.9 | IC50 [3, 4]: > 1 µM | IC50 [3, 8]: > 10 µM | IC50 [3, 5]: 1.98 µM | IC50 [3, 9]: > 10 µM | IC50 [3, 6]: 1.99 µM | IC50 ([3]; 3D7, read-out: Schizonts IC50 (IC50^8h), 8-h exposure 32–40 hr, bound given in μM): > 10 µM | Peak Activity (Table S1) ([3]; stage(s) with the lowest IC50^8h): Trophs

CCOC(=O)C1=C(C)N=c2s/c(=C\c3cc(Cl)ccc3O)c(=O)n2C1c1ccc(OC)cc1 (centres unmarked) [MMV665971]
IC50 [2]: 185 nM | Ratio lowest IC50 8hr/IC50 72hr [3]: 2.6 | killing in stage specificity assay ([3]; 8-h exposures, survival curves): incomplete killing at all asexual blood stages | IC50 [3, 8]: > 25 µM | IC50 [3, 5]: 0.496 µM | IC50 [3, 9]: > 25 µM | IC50 [3, 6]: 0.485 µM | IC50 [3, 7]: 0.523 µM
